# Results: ChEMBL document CHEMBL1124537, “The importance of the orientation of the C9 substituent to cannabinoid activity” (J Med Chem, 1989)
# Activity calls are given as the source filed them. The rule behind the calls is not given here.
# Assays:
# Format in all cases: functional, organism-based
# Details in all cases: Cercopithecidae
# Monkey [1] = experiment: Compound was tested for activity in rhesus monkey behavioral test; Inactive
# Monkey [2] = experiment: Compound was tested for activity in rhesus monkey behavioral test; Active
# Monkey [3] = experiment: Compound was tested for activity in rhesus monkey behavioral test; Minimal activity
Structure (SMILES),Activity (Monkey [1]),Activity (Monkey [2]),other results
CCCCCc1cc(O)c2c(c1)OC(C)(C)C1C=C[C@H](C)CC21 (stereo partly specified),inactive,–,–
CCCCCc1cc(O)c2c(c1)OC(C)(C)C1CC[C@H](C)CC21 (stereo partly specified),–,Active,–
CCCCCc1cc(O)c2c(c1)OC(C)(C)[C@@H]1CCC(C)=C[C@@H]21,–,Active,–
C=C1CCC2C(C1)c1c(O)cc(CCCCC)cc1OC2(C)C (stereo unspecified),inactive,–,–
CCCCCc1cc(O)c2c(c1)OC(C)(C)C1CC[C@@H](C)CC21 (stereo partly specified),–,–,Activity (Monkey [3]): Minimal activity
CCCCCc1cc(O)c2c(c1)OC(C)(C)[C@@H]1CC=C(C)C[C@@H]21,–,Active,–
